Read-outs that look alike come from different tables or passages of the source. Blank lines part the entries; values can stand above or below the molecule they belong to.
Legend:
[1] = system: HCT-116 cells (PORko-G, HCT-116 WT, POR-R); experiment: Cellular metabolism assay (LC-MS/MS of reduced metabolites); type: in vitro ADME, human; conditions: anoxic cultures
Protocol: Aerobic and anoxic conditions were achieved as described above. Cells (5 x 10^5 per well) were seeded with 350 µl medium in duplicate into 24-well plates and left to attach for 2 h in a humidified 37°C incubator. A working solution of CP-506 was prepared in culture medium to achieve a 100 µM concentration in each well after the addition of a 500 µl volume. Plates were exposed to drug for 1 h in a humidified 37°C incubator. Metabolism was then halted by the addition of two-volumes of ice-cold acetonitrile containing 2 µM of internal standard for each analyte. Samples were stored at −80°C until LC-MS/MS analysis.
(§1) The LC system for tandem MS consisted of an Agilent 1200 autosampler (4°C) and binary pump, a 3.0 × 50 mm, 1.8-micron Zorbax SB-C18 column (Agilent; PN: 827975-302) and 2.1 × 7 mm guard column (Alltech, IL) maintained at 35°C, at a pressure of <400 bar and flow rate of 0.3 ml/min. The mobile phase comprised a gradient of 0.01% formic acid in 80% acetonitrile - 20% water, v/v (solvent A), and 0.01% formic acid in water (solvent B). Initial mobile phase composition was 20% solvent A and 80% solvent B, increasing to 60% A (0–3 min) then 80% A (3–5.45 min), returning to initial conditions (5.5–6 min). Post-run time was 1 min, and the total run time was […]. Mass spectrometric detection was carried out using an Agilent 6410 triple quadrupole mass spectrometer equipped with a multimode ionization (MMI) source. The mass spectrometer was operated in electrospray positive ionization mode using multiple reaction monitoring (MRM), with Q1 & Q3 set to unit resolution ([…]). The electrospray ionization parameters, optimized for the parent molecular ion ([M+H]+) abundance were: drying gas temperature 325°C, vaporiser temperature 150°C, drying gas flow 5 L/min, nebuliser pressure 50 psi, capillary voltage 1.8 kV, Delta EMV 300 V. Ultra-pure nitrogen was used as collision gas. The divert valve feature of the Agilent 6410 triple quadrupole mass spectrometer was utilised to prevent the eluate from entering the ionisation source chamber during the first 0.5 min of each run. For CP-506 samples, positively charged ions representing the [M+H]+ for CP-506 and CP-506-D8 were collisionally dissociated to form specific product ions which were monitored in MS2 (unit resolution). The MRM transition, ionization mode, collision energy, dwell time, fragmentor voltage and retention time for all compounds is provided in Supplementary Table S2. Agilent MassHunter software (v.4.04.00) was used for data acquisition and chromatographic peak integration.

[2] = Media stability studies (stirred medium without serum, 37°C); type: physicochemical; conditions: for half-life at 100 µM: 37°C, aerobic, medium without serum/cells, read-out: Half-life (T1/2) in stirred medium
Protocol: The stability of each compound was determined in stirred medium (without serum) maintained under aerobic conditions by the constant supply of a humidified gas mixture comprised of 21% O2, 5% CO2 with balance N2. Vials were spiked with 100 µM of the relevant compound, and samples were collected using a positive displacement pipettor for up to 3 h thereafter. The collected samples were then treated with two-volumes of ice-cold acetonitrile containing 2 µM of the relevant deuterated (D8) internal standard and stored at −80°C until LC-MS/MS analysis.
as §1

[3] = ref Guise et al., 2010; cited from earlier work
[4] = ref Hicks et al., 2007; Foehrenbacher et al., 2013a, 2013b; cited from earlier work
HCT-116 cell line panel = experiment: Anti-proliferative IC50 assay of authentic CP-506 metabolites; type: cell-based, human
Protocol: Cells (700–1,000 per well) were seeded with 100 µl culture medium into 96-well plates and left to attach for 2 h in a humidified 37°C incubator. Compounds were prepared in culture medium and serially diluted (1:3) in the well volume. […] Aerobic experiments were performed under standard tissue culture conditions (21% O2), and the anoxic experiments were performed in parallel in a 5% H2/Pd catalyst anaerobic chamber (Shellab Bactron, Sheldon manufacturing Inc., Cornelius, OR) using pre-equilibrated media and plasticware. All anoxia experiments were conducted using a catalyst-scrubbed anaerobic chamber, unless otherwise specified, with gas oxygen measurements of <1 ppm O2. Cells were then washed three times and left to grow for 96 h before cell density determination using a sulforhodamine B (SRB) assay ([Vichai and Kirtikara, 2006]). To this end, the cells were fixed by layering 50 µl of trichloroacetic acid (40% w/v in MilliQ water) on top of the culture media (150 µl) in each well for 1 h at 4°C. Plates were rinsed under running tap water and stained with 50 µl of SRB (0.4% w/v in MilliQ water containing 1% v/v acetic acid) for 30 min at room temperature. Plates were rapidly destained by rinsing three times in tap water containing 1% (v/v) acetic acid. The stain was solubilized by adding 100 µl of 10 mM unbuffered Tris base to each well with gentle rocking for 1 h. Plates were read on a Biotek ELx808 Absorbance Microplate Reader at 490 nm using KC4 software. The IC50 value (concentration required to reduce staining to 50% of the untreated control on the same plate) for each compound was determined by interpolation using a 4-parameter logistic regression model.
FIGURE 3 Hypoxia-dependent metabolism of CP-506 leads to the formation of a multitude of short-lived species with variable cytotoxicity. (A) Bioreductive metabolism of CP-506 under normoxic (21% O2) and anoxic conditions (<1 ppm O2). Concentrations of CP-506 and its metabolites (CP-506H, CP-506M and CP-506M-Cl2) were quantified by mass spectrometry with reference to the appropriate deuterated (D8) internal standard. Values are the mean ± SEM for three independent experiments. (B) Stability of CP-506 metabolites in culture medium (without cells) at 37°C. Concentrations were determined by mass spectrometry using standard curves generated from authenticated stocks. […] IC50 values are the mean ± SEM of duplicate wells for three independent experiments. T-tests were performed using GraphPad Prism 8 (ns, p-value > 0.05; *, p-value ≤ 0.05; **, p-value ≤ 0.01; ***, p-value ≤ 0.001).

POR-R MCLs = conditions: established value for the internal standard; ref Wilson et al., 2004; cited from earlier work
[5] = stirred medium without serum or cells

Detection of metabolite in anoxic cultures [1]: undetectable
half-life at 100 µM [2, 5]: 0.0417 h
SMILES: CCN1CCN(C(=O)c2cc(N(CCO)CCO)c(S(C)(=O)=O)cc2NO)CC1 [CP-506H-(OH)2, (5-(Bis(2-hydroxyethyl)amino)-2-(hydroxyamino)-4-(methylsulfonyl)phenyl)(4-ethylpiperazin-1-yl)methanone]

SMILES: CS(=O)(=O)OCCN(CCBr)c1c(C(=O)NCCO)cc([N+](=O)[O-])cc1[N+](=O)[O-] [PR-104A, reference compound]
Safe human exposure levels as percent of those observed in mice [3]: 10–29%
KO2 (O2 concentration of half-maximal activation) [4]: 0.126 µM O2

SMILES: CCN1CCN(C(=O)c2cc(N(CCCl)CCCl)c(S(C)(=O)=O)cc2NO)CC1 [CP-506H-Cl2, (5-(Bis(2-chloroethyl)amino)-2-(hydroxyamino)-4-(methylsulfonyl)phenyl)(4-ethylpiperazin-1-yl)methanone]
half-life at 100 µM [2]: 2.35 h
Fold longer half-life than CP-506H or CP-506M ([2]; stirred medium, Figure 3B): ≥ 10 fold
Anti-proliferative IC50 of metabolite (HCT-116 cell line panel; direct exposure of monolayers to authentic metabolite, Figure 3C: 5 days, normoxic 21% O2): limited potency

half-life at 100 µM [2, 5]: 6.56 h
SMILES: CCN1CCN(C(=O)c2cc(N(CCO)CCO)c(S(C)(=O)=O)cc2N)CC1 [CP-506M-(OH)2, (2-Amino-5-(bis(2-hydroxyethyl)amino)-4-(methylsulfonyl)phenyl)(4-ethylpiperazin-1-yl)methanone]
Concentration up to which the cell line panel was not sensitive (HCT-116 cell line panel; Figure 3C): > 100 µM

SMILES: N[14C](N)=O [[^14C]-urea]
DMCL in HCT-116 MCLs (POR-R MCLs): 3.67 x 10^−7 cm^2 s^−1
